Data published in patent US20240285547A1, “NEPHROTOXICITY REDUCING AGENT” (Nippon Shinyaku Co., Ltd., priority 2021, published 2024).

Experiments:
C57BL/6J male mice [1] = test: Evaluation of nephrotoxicity reducing effects of D-mannitol: serum BUN and Cre after tail vein administration of PMO dosing solutions; details: D-mannitol in PMO dosing solution vs control dosing solution comprising no D-mannitol
Source text: The antisense oligomers of PMO Nos. 1, 2, 6, 7, and 10 were each dissolved in water for injection comprising 0.9% sodium chloride (manufactured by Otsuka Pharmaceutical Co., Ltd.) to prepare a control dosing solution comprising each of the antisense oligomers at the concentrations shown in Tables 2, 3, 6, 7, and 8 and comprising no D-mannitol. Also, the antisense oligomers of PMO Nos. 3 and 4 were each dissolved in 5% glucose (manufactured by Otsuka Pharmaceutical Co., Ltd.) to prepare a control dosing solution comprising each of the antisense oligomers at the concentrations shown in Tables 4 and 5 and comprising no D-mannitol. […]
The obtained dosing solutions were administered into the tail vein of 6-week-old C57BL/6J male mice at 4, 10, and 20 mL/kg. Next day, serum was collected from the mice, and the blood urea nitrogen (BUN) values and blood creatinine (Cre) values were measured with the urease-GIDH method and the enzymatic method, respectively, using automatic biochemical analyzers JCA-BM6050 or JCA-BM8060 (manufactured by JEOL Ltd.).

[2] = Evaluation of precipitation suppressing effects with D-mannitol (absorbance at 620 nm in presence of ions assumed to be in urine); assay type: physicochemical; details: D-mannitol as medium for PMO Nos. 1, 2, 3, 5, 6, 7, ions assumed to be in urine, 37° C.
Protocol: The amount of precipitation in the presence of ions assumed to be in urine and precipitation suppressing effects of D-mannitol were evaluated on the antisense oligomers of PMO Nos. 1, 2, 3, 5, 6, and 7 (SEQ ID NO: 1, 2, 3, 5, 6, and 7) among those listed in Table 1 to further verify their utility for pharmaceutical applications.

C57BL/6J male mice [3] = test: Evaluation of nephrotoxicity reducing effects of D-sorbitol: serum BUN and Cre after tail vein administration of PMO dosing solutions; details: D-sorbitol in PMO dosing solution vs dosing solution comprising no D-sorbitol
Protocol: Next, the antisense oligomer of PMO No. 2 was dissolved in a solution obtained by dissolving D-sorbitol (manufactured by Maruishi Pharmaceutical Co., Ltd.) with physiological saline to prepare a dosing solution comprising the antisense oligomer and D-sorbitol at the concentrations shown in Table 9. Also, the antisense oligomer of PMO No. 3 was dissolved in a solution obtained by dissolving D-sorbitol with water for injection to prepare a dosing solution comprising the antisense oligomer and D-sorbitol at the concentrations shown in Table 10.
The obtained dosing solutions were administered into the tail vein of 6-week-old C57BL/6J male mice (N=3) at 4 and 10 mL/kg. Next day, serum was collected from the mice, and the blood urea nitrogen (BUN) values and blood creatinine (Cre) values were measured with the urease-GIDH method and the enzymatic method, respectively, using automatic biochemical analyzers JCA-BM8060 (manufactured by JEOL Ltd.). It was determined that the nephrotoxicity was reduced in a case where both of the BUN values and Cre values decreased in the mice to which the dosing solution comprising D-sorbitol has been administered, compared to the mice to which the dosing solution comprising no D-sorbitol has been administered.

SMILES	Nephrotoxicity reducing effect (C57BL/6J male mice [1])	Precipitation suppressing effect [2]	Nephrotoxicity reducing effect (C57BL/6J male mice [3])
OC[C@@H](O)[C@@H](O)[C@H](O)[C@H](O)CO [D-mannitol]	reduce nephrotoxicity	suppress the precipitation of antisense oligomers	–
OC[C@@H](O)[C@@H](O)[C@H](O)[C@@H](O)CO [D-sorbitol]	–	–	reduce nephrotoxicity
